Literature values as cited in patent EP3072528B1, “COMPOSITION COMPRISING VEMURAFENIB AND CATIONIC COPOLYMER BASED ON METHACRYLATES” (ratiopharm GmbH, priority 2015, dated 2016).

Conditions: reported; BCS IV compound

In the case of `CCCS(=O)(=O)Nc1ccc(F)c(C(=O)c2c[nH]c3ncc(-c4ccc(Cl)cc4)cc23)c1F` [Vemurafenib base, N-(3-{[5-(4-chlorophenyl)-1H-pyrrolo[2,3-b]pyridin-3-yl]carbonyl}-2,4-difluorophenyl)propane-1-sulfonamide], the “solubility in aqueous and physiological solvents” value is given as “practically insoluble”.
